Data as given in patent publication US7612087B2, “Heterocyclic compounds as inhibitors of beta-lactamases” (Novexel, priority 2002, dated 2009).

Columns and labels:
E. coli 250HT22 (Tem2) = experiment: MIC, micro-dilution in liquid medium, β-lactamine with product at 5 mg/l; assay type: cell-based; details: compound at 5 mg/l, 24 hours at 37° C.; for MIC of Cefotaxime in combination with the compound: Trial 3, 250HT22 E. coli Tem2; for MIC of Piperacillin in combination with the compound: Trial 3, 250HT22 Tem2
Summary of the method: (§1)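 Strains were seeded into liquid-medium dilutions of β-lactamine, each supplemented with a fixed 5 mg/l of test compound, and held 24 hours at 37° C in a heating chamber. Minimal inhibitory concentration was the level at which bacterial development was wholly absent.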

E. coli 250SJ1 (Tem7) = experiment: as above; assay type: cell-based; details: compound at 5 mg/l, 24 hours at 37° C.; for MIC of Cefotaxime in combination with the compound: Trial 5, 250SJ1 E. coli Tem7; for MIC of Piperacillin in combination with the compound: Trial 5, 250SJ1 Tem7
Summary of the method: as §1

Serratia 301HT6 = experiment: as above; assay type: cell-based; details: compound at 5 mg/l; Trial 10, 301HT6 Serratia; 24 hours at 37° C.
Summary of the method: as §1

[1] = tested on: P. aeruginosa 391HT8 (PSE); experiment: as above; assay type: cell-based; details: compound at 5 mg/l, 24 hours at 37° C.; for MIC of Cefotaxime in combination with the compound: Trial 12, 391HT8 P. aeruginosa PSE; for MIC of Piperacillin in combination with the compound: Trial 12, 391HT8 PSE
Summary of the method: as §1

E. coli 250HT21 (Tem1) = experiment: as above; assay type: cell-based; details: compound at 5 mg/l, 24 hours at 37° C.; for MIC of Cefotaxime in combination with the compound: Trial 2, 250HT21 E. coli Tem1; for MIC of Piperacillin in combination with the compound: Trial 2, 250HT21 Tem1
Summary of the method: as §1

E. coli 250HT26 (SHV1) = experiment: as above; assay type: cell-based; details: compound at 5 mg/l, 24 hours at 37° C.; for MIC of Cefotaxime in combination with the compound: Trial 6, 250HT26 E. coli SHV1; for MIC of Piperacillin in combination with the compound: Trial 6, 250HT26 SHV1
Summary of the method: as §1

[2] = tested on: E. cloacae 293HT6 (Class C); experiment: as above; assay type: cell-based; details: compound at 5 mg/l, 24 hours at 37° C.; for MIC of Piperacillin in combination with the compound: Trial 9, 293HT6 Class; for MIC of Cefotaxime in combination with the compound: Trial 9, 293HT6 E. cloacae Class C
Summary of the method: as §1

[3] = tested on: S. aureus 011GO66 (PeniR); experiment: as above; assay type: cell-based; details: compound at 5 mg/l, 24 hours at 37° C.; for MIC of Cefotaxime in combination with the compound: Trial 1, 011GO66 S. aureus PeniR; for MIC of Piperacillin in combination with the compound: Trial 1, 011GO66 peniR
Summary of the method: as §1

[4] = tested on: E. coli 250HT23 (Class D); experiment: as above; assay type: cell-based; details: compound at 5 mg/l, 24 hours at 37° C.; for MIC of Piperacillin in combination with the compound: Trial 8, 250HT23 Class D; for MIC of Cefotaxime in combination with the compound: Trial 8, 250HT23 E. coli Class D
Summary of the method: as §1

E. coli 250BE1 (SHV4) = experiment: as above; assay type: cell-based; details: compound at 5 mg/l, 24 hours at 37° C.; for MIC of Cefotaxime in combination with the compound: Trial 7, 250BE1 E. coli SHV4; for MIC of Piperacillin in combination with the compound: Trial 7, 250BE1 SHV4
Summary of the method: as §1

[5] = tested on: P. aeruginosa 391HT7 (PSE); experiment: as above; assay type: cell-based; details: compound at 5 mg/l, 24 hours at 37° C.; for MIC of Cefotaxime in combination with the compound: Trial 11, 391HT7 P. aeruginosa PSE; for MIC of Piperacillin in combination with the compound: Trial 11, 391HT7 PSE
Summary of the method: as §1

β-lactamase P99 = molecular target: T1, β-lactamase P99 (Enterobacter cloacae, UniProt P05364); experiment: biochemical; details: 100 μM Nitrocefin, 50 mM sodium phosphate buffer pH7.0, 37° C.; read-out: IC50 nM/P99
T1 construct: The β-lactamases are isolated from bacterial strains which are resistant to penicillins and cephalosporins; endogenous in cells; host or cells: Enterobacter cloacae 293HT6 (natural producer; French-press lysate, 100,000 g supernatant)
Summary of the method: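 P99 β-lactamase, taken from the soluble fraction of an Enterobacter cloacae 293HT6 lysate, was assayed at 37° C. in 50 mM sodium phosphate buffer pH7.0 with 100 μM Nitrocefin as the chromogenic substrate. Hydrolysis was followed kinetically at 485 nm at initial speed, with and without a 5 mn enzyme–inhibitor preincubation. Inhibitors were tested at 6 or 8 concentrations in duplicate, and IC50 was fitted with GraFit.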

β-lactamase TEM1 = molecular target: T2, β-lactamase TEM1 (Escherichia coli, UniProt P62593); experiment: Inhibition of isolated β-lactamase Tem-1 (Nitrocefin hydrolysis); assay type: biochemical, E.coli 250HT21; details: 100 μM Nitrocefin, 50 mM sodium phosphate buffer pH7.0, 37° C.
T2 construct: The β-lactamases are isolated from bacterial strains which are resistant to penicillins and cephalosporins; endogenous in cells; host or cells: E. coli 250HT21 (natural producer; French-press lysate, 100,000 g supernatant)
Summary of the method: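 TEM-1 from soluble extract of E. coli 250HT21, normalized enzyme, 100 μM Nitrocefin in 50 mM sodium phosphate pH 7.0 at 37 °C. Initial-rate hydrolysis read kinetically at 485 nm, with and without 5 min enzyme–inhibitor preincubation. CI50 from 6 or 8 concentrations in duplicate.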

E. coli 250CF1 (Tem3) = experiment: microbe, parasite or virus in culture; assay type: cell-based; details: compound at 5 mg/l, 24 hours at 37° C.; for MIC of Cefotaxime in combination with the compound: Trial 4, 250CF1 E. coli Tem3; for MIC of Piperacillin in combination with the compound: Trial 4, 250CF1 Tem3
Summary of the method: as §1

T1 sequence (P05364 21-381): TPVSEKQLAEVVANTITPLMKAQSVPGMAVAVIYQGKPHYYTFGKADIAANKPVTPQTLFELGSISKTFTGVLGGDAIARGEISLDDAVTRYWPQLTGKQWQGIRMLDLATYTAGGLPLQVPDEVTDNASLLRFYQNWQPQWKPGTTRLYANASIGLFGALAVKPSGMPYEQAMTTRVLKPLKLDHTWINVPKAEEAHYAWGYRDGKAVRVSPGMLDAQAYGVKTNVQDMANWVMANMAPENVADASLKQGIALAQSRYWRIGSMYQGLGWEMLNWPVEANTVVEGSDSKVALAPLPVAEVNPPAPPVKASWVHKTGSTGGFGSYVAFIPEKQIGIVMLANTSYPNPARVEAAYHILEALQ
T2 sequence (P62593 24-286 limits assumed): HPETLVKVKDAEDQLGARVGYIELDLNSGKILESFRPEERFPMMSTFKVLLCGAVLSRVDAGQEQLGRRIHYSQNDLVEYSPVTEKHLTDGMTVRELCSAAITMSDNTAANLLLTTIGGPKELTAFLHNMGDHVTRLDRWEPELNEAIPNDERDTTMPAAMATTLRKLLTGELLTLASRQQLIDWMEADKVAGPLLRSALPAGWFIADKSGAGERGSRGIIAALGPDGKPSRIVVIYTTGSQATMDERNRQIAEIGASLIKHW

| Structure (SMILES) | MIC of Cefotaxime in combination with the compound (E. coli 250HT22 (Tem2)) | MIC of Piperacillin in combination with the compound (E. coli 250HT22 (Tem2)) [µg/mL] | MIC of Cefotaxime in combination with the compound (E. coli 250SJ1 (Tem7)) [µg/mL] | MIC of Piperacillin in combination with the compound (E. coli 250SJ1 (Tem7)) [µg/mL] | MIC of Cefotaxime in combination with the compound (Serratia 301HT6) [µg/mL] | MIC of Piperacillin in combination with the compound (Serratia 301HT6) [µg/mL] | MIC of Cefotaxime in combination with the compound [1] [µg/mL] | MIC of Piperacillin in combination with the compound [1] [µg/mL] | MIC of Cefotaxime in combination with the compound (E. coli 250HT21 (Tem1)) | MIC of Piperacillin in combination with the compound (E. coli 250HT21 (Tem1)) [µg/mL] | MIC of Cefotaxime in combination with the compound (E. coli 250HT26 (SHV1)) | MIC of Piperacillin in combination with the compound (E. coli 250HT26 (SHV1)) [µg/mL] | MIC of Piperacillin in combination with the compound [2] [µg/mL] | MIC of Cefotaxime in combination with the compound [2] [µg/mL] | MIC of Cefotaxime in combination with the compound [3] [µg/mL] | MIC of Piperacillin in combination with the compound [3] [µg/mL] | MIC of Piperacillin in combination with the compound [4] [µg/mL] | MIC of Cefotaxime in combination with the compound [4] | MIC of Cefotaxime in combination with the compound (E. coli 250BE1 (SHV4)) [µg/mL] | MIC of Piperacillin in combination with the compound (E. coli 250BE1 (SHV4)) [µg/mL] | also measured |
| --- | --- | --- | --- | --- | --- | --- | --- | --- | --- | --- | --- | --- | --- | --- | --- | --- | --- | --- | --- | --- | --- |
| CN(C)c1ccc(NC(=O)[C@H]2CC[C@@H]3CN2C(=O)N3OS(=O)(=O)[O-])cc1.[Na+] (relative stereo) [Example 40, sodium salt of trans-N-[4-(dimethylamino)phenyl]-7-oxo-6-(sulphooxy)-1,6-diazabicyclo[3.2.1]octane-2-carboxamide] | <=0.04 μg/ml | >40 | 0.15 | >40 | 0.08 | 1.2 | >40 | >40 | <=0.04 μg/ml | 10 | <=0.04 μg/ml | >40 | >40 | >40 | 2.5 | 0.6 | 20 | <=0.04 μg/ml | 1.2 | >40 | MIC of Cefotaxime in combination with the compound [5]: >40 µg/mL; MIC of Piperacillin in combination with the compound [5]: >40 µg/mL; IC50 (β-lactamase P99): 96 nM; IC50 (β-lactamase TEM1): 51 nM; MIC of Cefotaxime in combination with the compound (E. coli 250CF1 (Tem3)): 0.6 µg/mL; MIC of Piperacillin in combination with the compound (E. coli 250CF1 (Tem3)): >40 µg/mL |
| CN(C)c1cccc(NC(=O)[C@H]2CC[C@@H]3CN2C(=O)N3OS(=O)(=O)[O-])c1.[Na+] (relative stereo) [Example 41, sodium salt of trans-N-[3-(dimethylamino)phenyl]-7-oxo-6-(sulphooxy)-1,6-diazabicyclo[3.2.1]octane-2-carboxamide] | <=0.04 μg/ml | >40 | 0.6 | >40 | 0.08 | 1.2 | >40 | >40 | <=0.04 μg/ml | 40 | <=0.04 μg/ml | >40 | >40 | >40 | 2.5 | 1.2 | 40 | 0.08 µg/mL | >40 | >40 | MIC of Cefotaxime in combination with the compound [5]: >40 µg/mL; MIC of Piperacillin in combination with the compound [5]: >40 µg/mL; IC50 (β-lactamase P99): 120 nM; IC50 (β-lactamase TEM1): 14 nM; MIC of Cefotaxime in combination with the compound (E. coli 250CF1 (Tem3)): 2.5 µg/mL; MIC of Piperacillin in combination with the compound (E. coli 250CF1 (Tem3)): >40 µg/mL |
